Patent US20150105252A1, “SUBSTITUTED PYRAZOLES AS HERBICIDES” (E I DU PONT DE NEMOURS AND COMPANY, priority 2013, published 2015)

Key:
galium = test: Test C preemergence; format: in vivo, Galium aparine; details: preemergence; for Plant response rating, Galium: 125 g ai/ha, scale 0 to 100, 0 = no effect, 100 = complete control
Procedure, shortened: (§1)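 Herbicidal effect is expressed as percent visual control (0–100) judged against untreated plants 13 to 15 days after treatment in the greenhouse. Preemergence pots contained seeds in a soil–sand blend; postemergence plants, 2–18 cm tall, grew in peat-based planting medium.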

sedge, umbrella = test: Test B flood; format: in vivo, Cyperus difformis; details: 250 g ai/ha, visual rating on 0 to 100 scale (0 no effect, 100 complete control), 13 to 15 days
Procedure, shortened: (§2)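 Response scored visually, 0–100 relative to controls, 13–15 days after the compound was applied into paddy water; plants were at the 2-leaf stage in pots kept flooded to 3 cm.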

oilseed rape = test: Test C preemergence; format: in vivo, Brassica napus; details: preemergence; for Plant response rating, Oilseed Rape: 125 g ai/ha, scale 0 to 100, 0 = no effect, 100 = complete control
Procedure, shortened: as §1

nutsedge, yellow = test: Test C preemergence; format: in vivo, Cyperus esculentus; details: preemergence; for Plant response rating, Nutsedge, Yellow: 125 g ai/ha, scale 0 to 100, 0 = no effect, 100 = complete control
Procedure, shortened: as §1

morningglory = test: Test A preemergence; format: in vivo, Ipomoea spp.; details: preemergence; for Morningglory plant response rating (0 to 100 scale): 125 g ai/ha, visual injury approx. 10 days after treatment; for Morningglory plant response rating: 500 g ai/ha, visual injury after approx. 10 days, 0 to 100 scale (0 no effect, 100 complete control)
Procedure, shortened: (§3)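 Visual injury rating, 0–100 (0 no effect, 100 complete control), vs untreated controls ~10 days after treatment in greenhouse. Pre: directed soil spray on seeded loam/sand. Post: 2–10 cm plants, 1–2 leaf stage. Formulation: non-phytotoxic solvent mix + surfactant.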

ducksalad = test: Test B flood; format: in vivo, Heteranthera limosa; details: 250 g ai/ha, visual rating on 0 to 100 scale (0 no effect, 100 complete control), 13 to 15 days
Procedure, shortened: as §2

pigweed = test: Test A postemergence; format: in vivo, Amaranthus retroflexus; details: Postemergence
Procedure, shortened: as §3

wheat [1] = test: Test C preemergence; format: in vivo, Triticum aestivum; details: preemergence; for Plant response rating, Wheat: 125 g ai/ha, scale 0 to 100, 0 = no effect, 100 = complete control
Procedure, shortened: as §1

foxtail, giant [2] = test: Test C preemergence; format: in vivo, Setaria faberii; details: preemergence; for Plant response rating, Foxtail, Giant: 125 g ai/ha, scale 0 to 100, 0 = no effect, 100 = complete control
Procedure, shortened: as §1

corn [3] = test: Test C preemergence; format: in vivo, Zea mays; details: preemergence; for Plant response rating, Corn: 125 g ai/ha, scale 0 to 100, 0 = no effect, 100 = complete control
Procedure, shortened: as §1

velvetleaf = test: Test A preemergence; format: in vivo, Abutilon theophrasti; details: preemergence; for Velvetleaf plant response rating (0 to 100 scale): 125 g ai/ha, visual injury approx. 10 days after treatment; for Velvetleaf plant response rating: 500 g ai/ha, visual injury after approx. 10 days, 0 to 100 scale (0 no effect, 100 complete control)
Procedure, shortened: as §3

foxtail, giant [4] = test: Test A preemergence; format: in vivo, Setaria faberii; details: preemergence; for Foxtail, Giant plant response rating (0 to 100 scale): 125 g ai/ha, visual injury approx. 10 days after treatment; for Foxtail, Giant plant response rating: 500 g ai/ha, visual injury after approx. 10 days, 0 to 100 scale (0 no effect, 100 complete control)
Procedure, shortened: as §3

wheat [5] = test: Test A postemergence; format: in vivo, Triticum aestivum; details: Postemergence
Procedure, shortened: as §3

corn [6] = test: Test A preemergence; format: in vivo, Zea mays; details: preemergence; for Corn plant response rating (0 to 100 scale): 125 g ai/ha, visual injury approx. 10 days after treatment; for Corn plant response rating: 500 g ai/ha, visual injury after approx. 10 days, 0 to 100 scale (0 no effect, 100 complete control)
Procedure, shortened: as §3

crabgrass, large = test: Test A postemergence; format: in vivo, Digitaria sanguinalis
Procedure, shortened: as §3

[7] = 31 g ai/ha, visual rating, scale 0 to 100 (0 no effect, 100 complete control), 13 to 15 days
[8] = 62 g ai/ha, scale 0 to 100 (0 no effect, 100 complete control), 13 to 15 days
[9] = 250 g ai/ha, scale 0 to 100, 0 is no effect, 100 is complete control
[10] = 125 g ai/ha, 0 to 100 scale, 0 no effect, 100 complete control
[11] = 500 g ai/ha, 0 to 100 scale (0 no effect, 100 complete control)
[12] = Postemergence, 500 g ai/ha, 0 to 100 scale (0 no effect, 100 complete control)
[13] = postemergence, 125 g ai/ha, about 10 days, visual rating on 0 to 100 scale (0 no effect, 100 complete control)

SMILES | Galium plant response rating (galium; [7]) | Galium plant response rating (galium; [8]) | Plant response rating, Galium (galium; 13 to 15 days) | Galium plant response rating (galium; [9]) | Plant response rating, Sedge, Umbrella (sedge, umbrella) | Oilseed Rape plant response rating (oilseed rape; [7]) | Oilseed Rape plant response rating (oilseed rape; [8]) | Plant response rating, Oilseed Rape (oilseed rape; 13 to 15 days) | Oilseed Rape plant response rating (oilseed rape; [9]) | Nutsedge, Yellow plant response rating (nutsedge, yellow; [7]) | Nutsedge, Yellow plant response rating (nutsedge, yellow; [8]) | Plant response rating, Nutsedge, Yellow (nutsedge, yellow; 13 to 15 days) | Nutsedge, Yellow plant response rating (nutsedge, yellow; [9]) | Morningglory plant response rating (0 to 100 scale) (morningglory) | Morningglory plant response rating (morningglory) | Plant response rating, Ducksalad (ducksalad) | Pigweed plant response rating (pigweed; [10]) | Pigweed plant response rating (pigweed; [11]) | Wheat plant response rating (wheat [1]; [7]) | Wheat plant response rating (wheat [1]; [8]) | other results
CCONC(=O)c1cc(OCC)n(Cc2ccnc(C(F)(F)F)c2)n1 [Compound 195] | 0 | 85 | 95 | 100 | 95 | 30 | 85 | 95 | 98 | 20 | 85 | 85 | 95 | 90 | 100 | 95 | 100 | 100 | 0 | 45 | Plant response rating, Wheat (wheat [1]; 13 to 15 days): 85; Wheat plant response rating (wheat [1]; [9]): 90; Foxtail, Giant plant response rating (foxtail, giant [2]; [7]): 65; Foxtail, Giant plant response rating (foxtail, giant [2]; [8]): 85; Plant response rating, Foxtail, Giant (foxtail, giant [2]; 13 to 15 days): 100; Foxtail, Giant plant response rating (foxtail, giant [2]; [9]): 100; Corn plant response rating (corn [3]; [7]): 25; Corn plant response rating (corn [3]; [8]): 45; Plant response rating, Corn (corn [3]; 13 to 15 days): 70; Corn plant response rating (corn [3]; [9]): 95; Velvetleaf plant response rating (0 to 100 scale) (velvetleaf): 80; Velvetleaf plant response rating (velvetleaf): 100; Foxtail, Giant plant response rating (0 to 100 scale) (foxtail, giant [4]): 90; Foxtail, Giant plant response rating (foxtail, giant [4]): 90; Wheat plant response rating (wheat [5]; [10]): 90; Wheat plant response rating (wheat [5]; [11]): 90; Corn plant response rating (0 to 100 scale) (corn [6]): 0; Corn plant response rating (corn [6]): 90; Crabgrass, Large plant response rating (crabgrass, large; [12]): 100; Crabgrass, Large plant response rating (crabgrass, large; [13]): 80
CCNC(=O)c1cc(CC)n(Cc2ccnc(C(F)(F)F)c2)n1 [Compound 196] | 98 | 95 | 100 | 100 | 70 | 90 | 98 | 100 | 100 | 15 | 65 | 80 | 90 | 100 | 100 | 80 | 100 | 100 | 0 | 65 | Plant response rating, Wheat (wheat [1]; 13 to 15 days): 85; Wheat plant response rating (wheat [1]; [9]): 80; Foxtail, Giant plant response rating (foxtail, giant [2]; [7]): 98; Foxtail, Giant plant response rating (foxtail, giant [2]; [8]): 100; Plant response rating, Foxtail, Giant (foxtail, giant [2]; 13 to 15 days): 100; Foxtail, Giant plant response rating (foxtail, giant [2]; [9]): 100; Corn plant response rating (corn [3]; [7]): 5; Corn plant response rating (corn [3]; [8]): 5; Plant response rating, Corn (corn [3]; 13 to 15 days): 65; Corn plant response rating (corn [3]; [9]): 98; Velvetleaf plant response rating (0 to 100 scale) (velvetleaf): 80; Velvetleaf plant response rating (velvetleaf): 100; Foxtail, Giant plant response rating (0 to 100 scale) (foxtail, giant [4]): 100; Foxtail, Giant plant response rating (foxtail, giant [4]): 90; Wheat plant response rating (wheat [5]; [10]): 40; Wheat plant response rating (wheat [5]; [11]): 90; Corn plant response rating (0 to 100 scale) (corn [6]): 10; Corn plant response rating (corn [6]): 90; Crabgrass, Large plant response rating (crabgrass, large; [12]): 100; Crabgrass, Large plant response rating (crabgrass, large; [13]): 90
Cc1cc(C(=O)NC(C)C)nn1Cc1ccnc(C(F)(F)F)c1 [Compound 197] | 90 | 100 | 98 | 95 | 85 | 80 | 95 | 95 | 100 | 0 | 25 | 75 | 85 | 100 | 100 | 95 | 100 | 100 | 0 | 0 | Plant response rating, Wheat (wheat [1]; 13 to 15 days): 5; Wheat plant response rating (wheat [1]; [9]): 80; Foxtail, Giant plant response rating (foxtail, giant [2]; [7]): 65; Foxtail, Giant plant response rating (foxtail, giant [2]; [8]): 98; Plant response rating, Foxtail, Giant (foxtail, giant [2]; 13 to 15 days): 100; Foxtail, Giant plant response rating (foxtail, giant [2]; [9]): 100; Corn plant response rating (corn [3]; [7]): 5; Corn plant response rating (corn [3]; [8]): 5; Plant response rating, Corn (corn [3]; 13 to 15 days): 45; Corn plant response rating (corn [3]; [9]): 95; Velvetleaf plant response rating (0 to 100 scale) (velvetleaf): 70; Velvetleaf plant response rating (velvetleaf): 100; Foxtail, Giant plant response rating (0 to 100 scale) (foxtail, giant [4]): 100; Foxtail, Giant plant response rating (foxtail, giant [4]): 100; Wheat plant response rating (wheat [5]; [10]): 0; Wheat plant response rating (wheat [5]; [11]): 60; Corn plant response rating (0 to 100 scale) (corn [6]): 0; Corn plant response rating (corn [6]): 90; Crabgrass, Large plant response rating (crabgrass, large; [12]): 100; Crabgrass, Large plant response rating (crabgrass, large; [13]): 80
